Laboratory results as given in patent publication US11447454B2, “Synthesis of benzodiazepine derivatives” (Trio Medicines Limited, priority 2015, dated 2022).

Legend:
CCK1 (human) = target: T1, CCK1 (human) (Homo sapiens, UniProt P32238); assay: CCK1 receptor functional assay (antagonist effect, cAMP, HTRF); format: cell-based
T1 construct: expressed in transfected cells; host or cells: CHO cells
T1 sequence (P32238 1-428): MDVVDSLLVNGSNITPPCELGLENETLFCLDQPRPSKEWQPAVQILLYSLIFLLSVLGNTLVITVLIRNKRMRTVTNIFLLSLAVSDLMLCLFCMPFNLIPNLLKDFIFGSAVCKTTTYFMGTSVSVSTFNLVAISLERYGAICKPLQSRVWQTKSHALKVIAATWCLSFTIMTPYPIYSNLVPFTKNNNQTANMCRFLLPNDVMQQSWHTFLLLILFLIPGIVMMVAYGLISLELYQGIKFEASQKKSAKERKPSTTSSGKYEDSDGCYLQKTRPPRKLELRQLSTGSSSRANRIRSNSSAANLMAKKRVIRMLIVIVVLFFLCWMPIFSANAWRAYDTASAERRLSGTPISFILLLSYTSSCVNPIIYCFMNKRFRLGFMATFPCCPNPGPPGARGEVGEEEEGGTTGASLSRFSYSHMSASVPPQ
Text: (§1) (TR2) and (TR3) were compared with YF476 and YM022 in CCK1 and CCK2 receptor functional assays with the following assay criteria.
(§2) The potency of the antagonists is expressed as IC50, the concentration of antagonist that causes a half-maximum inhibition of the control agonist response. The affinity of the antagonist for the receptor is expressed as KB, the concentration of antagonist, which would occupy 50% of the receptors at equilibrium.

CCK2 (human) = target: T2, CCK2 (human) (Homo sapiens, UniProt P32239); assay: CCK2 receptor functional assay (antagonist effect, cAMP, HTRF); format: cell-based
T2 construct: expressed in transfected cells; host or cells: CHO cells
T2 sequence (P32239 1-447): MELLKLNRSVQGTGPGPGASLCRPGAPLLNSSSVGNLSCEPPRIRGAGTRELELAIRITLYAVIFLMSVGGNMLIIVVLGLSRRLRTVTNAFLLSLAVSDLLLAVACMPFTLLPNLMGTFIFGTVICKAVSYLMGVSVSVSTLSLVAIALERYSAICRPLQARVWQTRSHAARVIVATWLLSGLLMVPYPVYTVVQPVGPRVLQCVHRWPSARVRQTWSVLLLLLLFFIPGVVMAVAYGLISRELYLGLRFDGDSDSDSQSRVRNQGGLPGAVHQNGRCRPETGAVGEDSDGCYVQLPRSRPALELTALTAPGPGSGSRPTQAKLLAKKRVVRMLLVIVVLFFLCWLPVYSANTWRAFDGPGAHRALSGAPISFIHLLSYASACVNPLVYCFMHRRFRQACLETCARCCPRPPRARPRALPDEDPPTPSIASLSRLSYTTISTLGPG
Text: as §1
as §2, with “Furthermore, the selectivity of (TR2) for the CCK2 receptor over the CCK1 receptor was 30% higher than the selectivity of YF476. The potency” for “The potency”

panel of 80 receptors = assay: Receptor binding screen, radiolabelled ligands; settings: scintillation counting; other than CCK2 and CCK1
Method: The potential of (TR2) and (TR3) to bind to other cellular and nuclear receptors was tested in a panel of 80 receptors. The assay used radiolabelled receptor ligands (agonist or antagonist, depending on the receptor), and the ability of the test compounds to inhibit ligand binding was measured by scintillation counting.

AGSGR cells = assay: Sulphorhodamine-B (SRB) proliferation assay; format: cell-based, human; settings: G17 10 nM
Method: The potency of (TR2) and (TR3) was tested in a sulphorhodamine-B (SRB) proliferation assay in a human gastric adenocarcinoma cell line stably transfected with the human gastrin/CCK2 receptor gene (AGSGR). SRB is a fluorescent dye that binds to proteins, so cells with a high rate of protein synthesis (proliferative cells) will show high levels of fluorescence in the SRB assay. The gastrin fragment G17 has an anti-proliferative effect on AGSGR cells. So, when treated with G17, the cells show lower levels of fluorescence in the SRB assay. (TR2) and (TR3) were compared with the positive controls YF476 and YM022. […] None of the compounds tested affected AGSGR cell proliferation in the absence of G17.

[1] = Pharmacokinetics in healthy subjects; settings: human, in vivo, po
Method: In an initial study, healthy volunteers took a single oral dose of 100 mg (TR2) as an active pharmaceutical ingredient (API) in a capsule. Plasma concentrations were measured.
In further clinical studies, healthy volunteers (n=8) took single oral doses of 5, 15, 50 and 100 mg (TR2) as an active pharmaceutical ingredient (API) in a capsule. Plasma concentrations were measured.
Healthy volunteers (n=8) took single oral doses of 5, 15, 25 and 50 mg (TR2-A) as API in a capsule (TR2-A (crystalline) in hard gelatin capsules with no excipient, no processing of the API). Plasma concentrations of (TR2) and (TR2-A) were measured. The area under the curve of plasma concentrations of (TR2) after a single oral dose of 50 mg of (TR2-A) API (AUC0-24 h=212.5) was about the same as that observed for a similar formulation of a single oral dose of (TR2) 100 mg (AUC0-24 h=241.5). […] Moreover, the plasma concentrations of (TR2-A) were low (AUC0-24 h<10), showing that (TR2-A) is acting as a prodrug for (TR2).

[2] = Morphology studies (crystallisation attempts, XRPD); format: physicochemical
Text: This is indicative of an advantage over YF476 in terms of the formulation of a suitable pharmaceutical composition. YF476 is crystalline, which contributes to poor solubility and bioavailability. Amorphous YF476 can be used to increase bioavailability, but requires stabilization, which can be achieved as a solid dispersion on hydroxypropyl methyl cellulose by spray-drying.

[3] = system: increase in H+ concentration of gastric aspirate induced by pentagastrin; assay: Pharmacodynamic effect in healthy subjects (pentagastrin infusion); format: in vivo, human
Method: Pentagastrin induces gastric acid secretion, and thereby increases H^+ concentration.
In further clinical studies, in healthy volunteers, single oral doses of 5, 15, 50 and 100 mg of (TR2) or 5, 15, 25 and 50 mg (TR2-A) were administered in conjunction with pentagastrin infusion (i.v. dose 0.6 μg/kg/h for 2 h).
YF476 with pentagastrin infusion.

[4] = Solubility study in Britton-Robinson's buffer (HPLC-UV); format: physicochemical
Method: The test compound (2.5 mg of solid; n=1) was weighed in a clear glass vial and Britton-Robinson's buffer (0.5 mL) was added (pH 2.01, pH 3.06, pH 4.06, pH 5.08, pH 5.99, pH 6.98, and pH 8.16). The solution was agitated at ambient temperature overnight using a vial roller system, and then filtered (0.45 µm pore size; without pre-saturation). Two aliquots (50 μL) were sampled from the filtrate and diluted with one volume of 0.1 N hydrochloric acid and methanol (1:1 v/v) before analysis by HPLC-UV. A standard was prepared in DMSO at 10 mg/mL (n=1) which was then diluted 10-fold in 0.1 N hydrochloric acid and methanol (1:1 v/v) to give a 1 mg/mL solution. The concentration of test compound in the filtrate was quantified relative to the concentration standard.
Analysis was done using a gradient HPLC-UV system with a total cycle time of 6 min. The UV detection between 220 nm and 300 nm was done using a photodiode array detector. Total response was monitored.
The values given in the table above are for crystalline YF476 and (TR2-A) and amorphous (TR1).

SMILES	CCK1 receptor antagonism (in words) (CCK1 (human))	CCK2 receptor antagonism (in words) (CCK2 (human))	inhibition of ligand binding in panel of 80 receptors (panel of 80 receptors)	inhibition of the anti-proliferative effects of G17 (AGSGR cells; compound 100 nM)	preferred solid state [2]	other results
CNc1cccc(NC(=O)N[C@@H]2N=C(c3ccccn3)c3ccccc3N(CC(=O)C(C)(C)CO)C2=O)c1 [TR2, (R)-1-[1-(4-Hydroxy-3,3-dimethyl-2-oxo-butyl)-2-oxo-5-pyridin-2-yl-2,3-dihydro-1H-benzo[e][1,4]diazepin-3-yl]-3-(3-methylamino-phenyl)-urea]	less potent CCK1 receptor antagonists	potent CCK2 receptor antagonists	No significant receptor binding	completely inhibited	prefer an amorphous state over a crystalline state	selectivity for the CCK2 receptor over the CCK1 receptor higher than the selectivity of YF476 (CCK2 (human)): 30%; less potent than YF476 and YM022 in the CCK2 assay (CCK2 (human); IC50 compared): about 5 fold; affinity for the CCK2 receptor lower than that of YF476 (CCK2 (human); KB compared): about 5 fold; affinity for the CCK2 receptor relative to YM022 (CCK2 (human); KB compared): twice; AUC relative to YF476 100 mg [1]: about twice; solid state by XRPD analysis [2]: amorphous state
CNc1cccc(NC(=O)N[C@@H]2N=C(c3ccccn3)c3ccccc3N(CC(=O)C(C)(C)COC(C)=O)C2=O)c1 [TR2-A, (R)-1-[1-(4-Acetoxy-3,3-dimethyl-2-oxo-butyl)-2-oxo-5-pyridin-2-yl-2,3-dihydro-1H-benzo[e][1,4]diazepin-3-yl]-3-(3-methylamino-phenyl)-urea]	–	–	–	–	–	potency as a CCK2 receptor antagonist in healthy subjects (in words) [3]: greater than that of both (TR2) and YF476
CNc1cccc(NC(=O)NC2N=C(c3ccccn3)c3ccccc3N(CC(=O)C(C)(C)CO)C2=O)c1 (racemic) [TR1]	–	–	–	–	prefer an amorphous state over a crystalline state	aqueous solubility compared (in words) [4]: more soluble in aqueous solution than YF476
CNc1cccc(NC(=O)N[C@H]2N=C(c3ccccn3)c3ccccc3N(CC(=O)C(C)(C)CO)C2=O)c1 [TR3]	less potent CCK1 receptor antagonists	potent CCK2 receptor antagonists	No significant receptor binding	–	prefer an amorphous state over a crystalline state	inhibition of the anti-proliferative effects of G17 (AGSGR cells; compound 500 nM): had the same effect
CNc1cccc(NC(=O)N[C@@H]2N=C(c3ccccn3)c3ccccc3N(CC(=O)C(C)(C)C)C2=O)c1 [YF476, reference compound]	–	–	–	completely inhibited	–	–
Cc1cccc(NC(=O)N[C@@H]2N=C(c3ccccc3)c3ccccc3N(CC(=O)c3ccccc3C)C2=O)c1 [YM022, reference compound]	–	–	–	completely inhibited	–	–
